{"source": "patent US8836218B2", "about": "“Methods of treatment using combination therapy” (Ambit Biosciences Corp., priority 2009, dated 2014)", "key": {"[1]": {"test_system": "MV4-11 cell lines", "test": "AC220 in combination with cytarabine, cell viability study (CellTiter-Blue)", "format": "cell-based", "settings": "Homo sapiens; MV4-11, AC220 alone", "procedure": "In this assay, the sequence of administration of AC220 and cytarabine was examined for its cytotoxic effect. For the combination schedules tested, MV4-11 cell lines were cultured in Iscove medium with 10% fetal bovine serum and penicillin/streptomycin to a density of 3e5/mL and plated at 6e4 cells per well. […] Cytotoxicity was assessed using the CellTiter-Blue™ Viability Assay (#G8081 Promega). A combination index (CI) value was generated for each combination experiment using a commercially available software program (Calcusyn; Biosoft, Manchester, United Kingdom). The interaction of the two agents was analyzed using the median effect method of Chou and Talalay (Adv. Enyme Regul. 1984; 22:27-55)."}, "[2]": {"test_system": "MV4-11 cell lines", "test": "AC220 in combination with daunorubicin, cell viability study (CellTiter-Blue)", "format": "cell-based", "settings": "Homo sapiens; MV4-11, AC220 alone", "protocol": "(§1) In this assay, the sequence of administration of AC220 and daunorubicin was examined for its cytotoxic effect. For the combination schedules tested, MV4-11 cell lines were cultured in RPMI medium with 10% fetal bovine serum and penicillin/streptomycin to a density of 3e5/mL to 1e6/mL and plated at 6e5 cells per well. […] Cytotoxicity was assessed using the CellTiter-Blue™ Viability Assay (#G8081 Promega). A combination index (CI) value was generated for each combination experiment using a commercially available software program (Calcusyn; Biosoft, Manchester, United Kingdom). The interaction of the two agents was analyzed using the median effect method of Chou and Talalay (Adv. Enyme Regul. 1984; 22:27-55)."}, "[3]": {"test_system": "MV4-11 solid tumor flank model", "test": "In vivo study of AC220 plus Aza-C in the MV4-11 solid tumor flank model", "design": "species or system SCID mouse", "settings": "for flank tumor volume: AC220 0.5 mkd PO", "protocol": "The size of the tumors averaged about 230 mm^3. […] Aza-C was delivered in a formulation of sterile saline (10 ml/kg/day, prepared in 5-day batches) at about 3 or about 1 mkd, QD, IP, and dose was adjusted for body weight. The average group starting body weight was about 20.6 g. The clinical signs and body weight were measured twice weekly. White blood cell (WBC) counts determined at the end of the Aza-C dosing period and again 7 days post drug treatment. The study was carried out in one or multiple treatment cycles with Aza-C delivered for 5 days on each 15 day cycle. […] [table]"}, "[4]": {"test_system": "MV4-11 cell lines", "test": "AC220 in combination with etoposide, cell viability study (CellTiter-Blue)", "format": "cell-based", "settings": "Homo sapiens; MV4-11, AC220 alone", "protocol": "as §1, with “etoposide” for “daunorubicin”, “22:27-55). The Combination index and Weighted combination index were calculated as described in Chou, Pharmacol. Rev. 58:621-681, 2006.” for “22:27-55).”\nAs described by Chou, supra, the ranges of CI indicate synergism, additive effect, and antagonism as follows:\nCI<1—synergism, CI=1—additive effect, and CI>1—antagonism."}, "[5]": {"test_system": "MV4-11 cell lines", "test": "AC220 in combination with cladribine, cell viability study (CellTiter-Blue)", "format": "cell-based", "settings": "Homo sapiens; MV4-11, AC220 alone", "protocol": "as §1, with “cladribine” for “daunorubicin”, “Iscove” for “RPMI”, “3e5/mL” for “3e5/mL to 1e6/mL”, “6e4” for “6e5”"}, "[6]": {"test_system": "MV4-11 solid tumor flank model", "test": "Efficacy study of AC220 plus cytarabine in the MV4-11 solid tumor flank model", "format": "in vivo, SCID mouse", "settings": "for sustained complete regressions: either agent alone (Groups 3 and 5): cytarabine 30 mkd IP Day 1 to 10, AC220 1 mkd PO Day 1 to 24", "protocol": "Dosing was initiated on day 14 post-inoculation with groups of 10 animals per arm. The size of the tumors averaged about 222 mm^3. […] Cytarabine was delivered in a formulation of sterile saline (5 ml/kg/day, prepared weekly) at about 30 or about 60 mkd, QD, IP, and dose was adjusted for body weight. […] The clinical signs and body weight were measured twice weekly. White blood cell (WBC) counts determined at the end of the cytarabine dosing period and again 7 days post drug treatment. The study was carried out in one or multiple treatment cycles with cytarabine delivered for 10 days on each 24 day cycle. […] [table]"}, "[7]": {"test_system": "MV4-11 cell lines", "settings": "MV4-11, cladribine alone; read-out: reported EC50 value; cited from earlier work"}, "[8]": {"test_system": "MV4-11 cell lines", "settings": "MV4-11, cytarabine alone; read-out: reported EC50 value; cited from earlier work"}, "[9]": {"test_system": "MV4-11 cell lines", "settings": "MV4-11, daunorubicin alone; read-out: reported EC50 value; cited from earlier work"}, "[10]": {"test_system": "MV4-11 cell lines", "settings": "MV4-11, etoposide alone; read-out: reported EC50 value; cited from earlier work"}}, "note": "Like-named read-outs stand apart in the source and are kept apart here."}
{"smiles": "CC(C)(C)c1cc(NC(=O)Nc2ccc(-c3cn4c(n3)sc3cc(OCCN5CCOCC5)ccc34)cc2)no1", "note": "[AC220, N-(5-tert-butyl-isoxazol-3-yl)-N′-{4-[7-(2-morpholin-4-yl-ethoxy)imidazo[2,1-b][1,3]benzothiazol-2-yl]phenyl}urea]", "values": [{"measurement": "EC50", "setting": "[1]", "result": 0.35, "unit": "nM"}, {"measurement": "EC50", "setting": "[2]", "result": 0.35, "unit": "nM"}, {"measurement": "flank tumor volume", "setting": "[3]; treatment at 15 days post inoculation", "result": "tumor stasis"}, {"measurement": "flank tumor volume", "setting": "[3]; treatment at 20 days post inoculation", "result": "tumor stasis"}, {"measurement": "EC50", "setting": "[4]", "result": 0.35, "unit": "nM"}, {"measurement": "EC50", "setting": "[5]", "result": 0.35, "unit": "nM"}, {"measurement": "sustained complete regressions", "setting": "[6]", "result": "no sustained complete regressions"}]}
{"smiles": "Nc1ncn([C@@H]2O[C@H](CO)[C@@H](O)[C@H]2O)c(=O)n1", "note": "[Aza-C, azacitidine]", "values": [{"measurement": "reduction in tumor volume", "setting": "[3]; Aza-C at the 3 mkg dose, IP, Day 1 to 5", "result": "~50", "unit": "%"}]}
{"smiles": "Nc1nc(Cl)nc2c1ncn2[C@H]1C[C@H](O)[C@@H](CO)O1", "note": "[cladribine]", "values": [{"measurement": "EC50", "setting": "[7]", "result": 16.2, "unit": "nM"}]}
{"smiles": "Nc1ccn([C@@H]2O[C@H](CO)[C@@H](O)[C@@H]2O)c(=O)n1", "note": "[cytarabine]", "values": [{"measurement": "EC50", "setting": "[8]", "result": 380, "unit": "nM"}, {"measurement": "sustained complete regressions", "setting": "[6]", "result": "no sustained complete regressions"}, {"measurement": "tumor burden", "setting": "[6]; sequential, second administration of Ara-C in animals that had 2 weeks of AC220 treatment", "result": "capable of reducing tumor burden"}]}
{"smiles": "COc1cccc2c1C(=O)c1c(O)c3c(c(O)c1C2=O)C[C@@](O)(C(C)=O)C[C@@H]3O[C@H]1C[C@H](N)[C@H](O)[C@H](C)O1", "note": "[daunorubicin]", "values": [{"measurement": "EC50", "setting": "[9]", "result": 12.7, "unit": "nM"}]}
{"smiles": "COc1cc([C@@H]2c3cc4c(cc3[C@@H](O[C@@H]3O[C@@H]5CO[C@@H](C)O[C@H]5[C@H](O)[C@H]3O)[C@H]3COC(=O)[C@H]23)OCO4)cc(OC)c1O", "note": "[etoposide]", "values": [{"measurement": "EC50", "setting": "[10]", "result": 34.6, "unit": "nM"}]}
